Broadly, the IC50 is the midpoint of a concentration-inhibition curve.

The record followed here is patent EP3319959B1, “HETERO-HALO INHIBITORS OF HISTONE DEACETYLASE” (Alkermes, Inc., priority 2015, dated 2017).

The assay has as its system recombinant human HDACs. Description: HDAC enzymatic assay (LabChip capillary electrophoresis). Format: biochemical. Particulars: 5 nM HDAC enzyme, 1 uM substrate, 5 hours pre-incubation, 17 hours reaction at 25°C; isoform not given. On the procedure: All recombinant human HDACs were purchased from BPS Bioscience. The substrate, FAM-TSRHK(AC)KL-CONH, was synthesized at NanoSyn. Final assay reactions contained 100 mM HEPES (pH 7.5), 50 mM KCl, 0.1% BSA, 0.01% Triton X-100, 1% DMSO, 1 uM substrate and 5 nM HDAC enzyme. Enzyme and compounds were pre-incubated at 25°C for 5 hours and reactions were initiated by addition of substrate. 10 uL reactions were incubated for 17 hours at 25°C and terminated by the addition of 40 uL of buffer containing 100 mM HEPES (pH 7.5), 0.1% BSA, 0.01% Triton X-100 and 0.05% SDS. Substrate and product peptides present in each sample were separated electrophoretically using the LabChip 3000 capillary electrophoresis instrument. Change in the relative fluorescence intensity of the substrate and product peaks reflects enzyme activity. Reaction progress was determined as the product to sum ratio (PSR): P/(S+P), where P is the peak height of the product peptide and S is the peak height of the substrate peptide. Reactions were performed in duplicate at 12 concentrations, (3X serial dilutions starting at 30 uM). IC50 values were calculated using a 4 Parameter Logistic Model.

A value given as a limit tells only on which side of the number the result lay.

Consider `Nc1ccc(-c2ccc(F)cc2)nc1NC(=O)N1CCN(C(=O)[C@@H]2C[C@H]2c2ccccc2)CC1` (stereo in doubt) [Compound 225], for which the IC50 was 0.5 to 5 µM.

Regarding `Nc1ccc(-c2ccc(F)cc2)nc1NC(=O)[C@H]1[C@@H]2CN(C3COC3)C[C@@H]21` (stereo in doubt) [Compound 239], the concentration for half-maximal inhibition (IC50) is > 5 µM.

Consider `CN1CC(N2C[C@@H]3[C@H](C2)[C@H]3C(=O)Nc2nc(-c3ccc(F)cc3)ccc2N)C1` (stereo in doubt) [Compound 241], for which the IC50 is > 5 µM.

Consider `Nc1ccc(-c2ccc(F)cc2)nc1NC(=O)[C@H]1[C@@H]2CN(C3CCOCC3)C[C@@H]21` (stereo in doubt) [Compound 264], for which the IC50 was > 5 µM.

On to `Cn1cc(CN2CCCC3(CCN(C(=O)Nc4nn(-c5ccc(F)cc5)cc4N)C3)C2)cn1` (stereo not drawn) [Compound 123], for which the IC50 is > 5 µM.

As for `COc1cccc(CN2CCCC3(CCN(C(=O)Nc4nn(-c5ccc(F)cc5)cc4N)C3)C2)c1` (stereo not drawn) [Compound 124], the IC50 is > 5 µM.

Turning to `Nc1cn(-c2ccc(F)cc2)nc1NC(=O)N1CCN(C(=O)[C@@H]2C[C@H]2c2ccccc2)CC1` [Compound 125], the IC50 lay in the range of 0.5 to 5 µM.

Consider `Cc1cnc(C(=O)Nc2nn(-c3ccccc3)cc2N)s1` [Compound 126], for which the IC50 fell in the range of 0.5 to 5 µM.

For the molecule `Nc1ccc(-c2ccc(F)cc2)nc1NC(=O)N1CC2CC(N3CCC3)CC2C1` (stereo not drawn) [Compound 143], the concentration for half-maximal inhibition (IC50) is 0.5 to 5 µM.

On to `Nc1ccc(-c2ccc(F)cc2)nc1NC(=O)N1Cc2cnc(N3CCC3)cc2C1` [Compound 147], for which the half-maximal inhibitory concentration (IC50) was 0.1 to 0.5 µM.

As to `Nc1ccc(-c2ccc(F)cc2)nc1NC(=O)N1Cc2cnc(N3CCOCC3)cc2C1` [Compound 150], the IC50 lay in the range of 0.1 to 0.5 µM.

In the case of `Cc1cc2c(cn1)CN(C(=O)Nc1nc(-c3ccc(F)cc3)ccc1N)C2` [Compound 151], the 50% inhibitory concentration (IC50) lay within 0.1 to 0.5 µM.

As to `CN1CC(N2CC3CN(C(=O)Nc4nc(-c5ccc(F)cc5)ccc4N)CC3C2)C1` (stereo not drawn) [Compound 152], the IC50 lay in the range of 0.5 to 5 µM.

On to `CN1CCc2sc(C(=O)Nc3nc(-c4ccc(F)cc4)ccc3N)nc2C1` [Compound 153], for which the IC50 lay in the range of 0.1 to 0.5 µM.

For `Nc1ccc(-c2ccc(F)cc2)nc1NC(=O)N1Cc2cc(N3CCC3)cnc2C1` [Compound 157], the IC50 is 0.1 to 0.5 µM.

Take `Nc1ccc(-c2ccc(F)cc2)nc1NC(=O)N1Cc2cc(N3CCOCC3)cnc2C1` [Compound 158]: the IC50 lay in the range of 0.1 to 0.5 µM.

Regarding `CN1CCN(c2cc3c(cn2)CN(C(=O)Nc2nc(-c4ccc(F)cc4)ccc2N)C3)CC1` [Compound 160], the IC50 was in the range of 0.1 to 0.5 µM.

Consider `Nc1ccc(-c2cccnc2)nc1NC(=O)c1nc2c(s1)CCN(CCF)C2` [Compound 164], for which the IC50 was 0.5 to 5 µM.

As to `Nc1ccc(-c2ccc(F)cc2)nc1NC(=O)c1nc2c(s1)CCN(CCF)C2` [Compound 165], the half-inhibitory concentration (IC50) lay within 0.1 to 0.5 µM.

As for `CN(C)CCN1CC2CN(C(=O)Nc3nc(-c4ccc(F)cc4)ccc3N)CC2C1` (stereo not drawn) [Compound 166], the IC50 lay in the range of 0.5 to 5 µM.

Regarding `Nc1ccc(-n2cccn2)nc1NC(=O)N1CC2CN(CCF)CC2C1` (stereo not drawn) [Compound 167], the IC50 is > 5 µM.

As to `CN1CCN(Cc2cnc3c(c2)CN(C(=O)Nc2nc(-c4ccc(F)cc4)ccc2N)C3)CC1` [Compound 168], the IC50 was in the range of 0.1 to 0.5 µM.

Regarding `CN1CCC(N2CC3CN(C(=O)Nc4nc(-c5ccc(F)cc5)ccc4N)CC3C2)CC1` (stereo not drawn) [Compound 169], the IC50 lay within 0.5 to 5 µM.

For the molecule `Cc1ccc(C2CN(C(=O)Nc3nc(-c4ccc(F)cc4)ccc3N)C2)cc1` [Compound 170], the IC50 lay within 0.5 to 5 µM.

With `Nc1ccc(-c2cccnc2)nc1NC(=O)N1CCC2(CCCNC2)C1` (stereo not drawn) [Compound 171], the IC50 is > 5 µM.

Take `Nc1ccc(-c2ccc(F)cc2)nc1NC(=O)N1CC2CC(NC3COC3)CC2C1` (stereo not drawn) [Compound 172]: the IC50 lay in the range of 0.5 to 5 µM.

On to `COc1ccc(-c2ccc(N)c(NC(=O)N3Cc4ccncc4C3)n2)cc1` [Compound 173], for which the half-maximal inhibitory concentration (IC50) was in the range of 0.5 to 5 µM.

For `Nc1ccc(-c2ccco2)nc1NC(=O)N1CC2CN(CCF)CC2C1` (stereo not drawn) [Compound 174], the IC50 is > 5 µM.

In the case of `Nc1ccc(-c2ccco2)nc1NC(=O)N1CC2CN(Cc3ccccc3F)CC2C1` (stereo not drawn) [Compound 175], the IC50 was > 5 µM.

As to `Nc1ccc(-c2ccc(F)cc2)nc1NC(=O)N1CC2CN(Cc3ccccc3F)CC2C1` (stereo not drawn) [Compound 176], the 50% inhibitory concentration (IC50) was 0.5 to 5 µM.

Regarding `Nc1ccc(-n2cccn2)nc1NC(=O)N1CC2CN(Cc3ccccc3F)CC2C1` (stereo not drawn) [Compound 177], the IC50 is > 5 µM.

Take `CN1CCN(Cc2cccc3c2CN(C(=O)Nc2nc(-c4ccc(F)cc4)ccc2N)C3)CC1` [Compound 178]: the 50% inhibitory concentration (IC50) is > 5 µM.

Turning to `CN1CCN(C2CC3CN(C(=O)Nc4nc(-c5ccc(F)cc5)ccc4N)CC3C2)CC1` (stereo not drawn) [Compound 179], the concentration for half-maximal inhibition (IC50) was 0.5 to 5 µM.

As to `Nc1ccc(-c2ccc(F)cc2)nc1NC(=O)N1CC2CC(N3CCOCC3)CC2C1` (stereo not drawn) [Compound 181], the IC50 is > 5 µM.

`Nc1ccc(-c2ccco2)nc1NC(=O)N1CC2CN(C3COC3)CC2C1` (stereo not drawn) [Compound 182]: the IC50 is > 5 µM.

In the case of `Nc1ccc(-c2ccc(F)cc2)nc1NC(=O)N1CC2CN(CCF)CC2C1` (stereo not drawn) [Compound 183], the IC50 is > 5 µM.

For `CN1CC2CN(C(=O)Nc3nc(-n4cccn4)ccc3N)CC2C1` (stereo not drawn) [Compound 184], the IC50 is > 5 µM.

For the molecule `Nc1ccc(-n2cccn2)nc1NC(=O)N1Cc2cc(F)cnc2C1` [Compound 185], the IC50 lay within 0.5 to 5 µM.

For the molecule `Nc1ccc(-c2ccc(F)cc2)nc1NC(=O)N1Cc2cc(F)cnc2C1` [Compound 186], the IC50 fell in the range of 0.5 to 5 µM.

Regarding `COc1ccc(-c2ccc(N)c(NC(=O)N3Cc4cc(F)cnc4C3)n2)cc1` [Compound 187], the IC50 was in the range of 0.5 to 5 µM.

Consider `Nc1ccc(-c2ccc(F)cc2)nc1NC(=O)N1CC2CC(N3CC(F)C3)CC2C1` (stereo not drawn) [Compound 188], for which the IC50 is 0.5 to 5 µM.

With `Nc1ccc(-c2ccco2)nc1NC(=O)N1CC2CC(N3CC(F)C3)CC2C1` (stereo not drawn) [Compound 189], the IC50 was > 5 µM.

On to `Nc1ccc(-n2cccn2)nc1NC(=O)N1CC2CC(N3CC(F)C3)CC2C1` (stereo not drawn) [Compound 190], for which the half-maximal inhibitory concentration (IC50) was > 5 µM.

On to `Nc1ccc(-c2ccccc2)nc1NC(=O)N1CC2CC(NC3COC3)CC2C1` (stereo not drawn) [Compound 191], for which the IC50 lay in the range of 0.5 to 5 µM.

As to `Nc1ccc(-c2ccc(F)cc2)nc1NC(=O)C1CN(c2ccccn2)C1` [Compound 192], the IC50 was > 5 µM.

In the case of `Nc1ccc(-c2ccco2)nc1NC(=O)C1CN(c2ccccn2)C1` [Compound 193], the IC50 was > 5 µM.

As to `Nc1ccc(-c2ccccc2)nc1NC(=O)CN1CCn2cncc2C1` [Compound 194], the IC50 was > 5 µM.

Consider `Nc1ccc(-c2ccccc2)nc1NC(=O)C1CN(c2ccccn2)C1` [Compound 195], for which the IC50 was > 5 µM.

For `CC(=O)N1CCN(CC(=O)Nc2nc(-c3ccccc3)ccc2N)CC1` [Compound 196], the IC50 is > 5 µM.

On to `Nc1ccc(-c2ccccc2)nc1NC(=O)N1CCn2ccnc2C1` [Compound 197], for which the IC50 is > 5 µM.

With `Nc1ccc(-c2ccco2)nc1NC(=O)C1CN(Cc2ccccc2)C1` [Compound 198], the concentration for half-maximal inhibition (IC50) was > 5 µM.

For the molecule `Nc1ccc(-c2ccccc2)nc1NC(=O)N1CC2CN(C3COC3)CC2C1` (stereo not drawn) [Compound 199], the IC50 is > 5 µM.

In the case of `CN1CC2CN(C(=O)Nc3nc(-c4ccc(F)cc4)ccc3N)CC2C1` (stereo not drawn) [Compound 201], the IC50 was > 5 µM.

Consider `Nc1ccc(-c2ccc(F)cc2)nc1NC(=O)N1CC2CN(C3COC3)CC2C1` (stereo not drawn) [Compound 203], for which the IC50 was > 5 µM.
